Test results reported in publication PMC8284453 (Antimicrobial Agents and Chemotherapy, 2021).
Converted amounts (≈) assume the structure as drawn. Like-named read-outs stand apart in the source and are kept apart here.

Tests used:
[1] = system: isogenic strains of E. coli expressing Ambler class A, B, C, and D enzymes; assay: microbe, parasite or virus in culture; format: cell-based, Escherichia coli; details: Escherichia coli
[2] = system: Enterobacterales expressing class D oxacillinases (OXA-48/48-like); assay: organism not typed; format: cell-based, E. coli, K. pneumoniae
[3] = system: Enterobacterales expressing class C cephalosporinases
[4] = system: Enterobacterales expressing class A carbapenemases (KPC); assay: organism not typed; format: cell-based, K. pneumoniae, E. coli, E. cloacae, Klebsiella oxytoca
[5] = system: strains of Enterobacterales expressing serine β-lactamases; assay: organism not typed; format: cell-based
CTX-M-15 = CTX-M-15 (Escherichia coli, UniProt Q9EXV5); assay: IC50 determination against purified β-lactamase; format: biochemical; design: made in house; host or cells: E. coli BL21(DE3), plasmid pET-CTX-M-15 (pET9a); details: substrate cefotaxime; mean from duplicate measurements; read-out: IC50
Protocol: (§1) An equal volume of enzyme was added (assay concentrations, 0.6 nM P99AmpC, 21 nM CTX-M-15, 3 nM KPC-2, 100 nM SHV-5), and the mixtures were preincubated for 15 min at 37°C. For AmpC, nitrocefin was then added to obtain a final concentration of 100 μM, and the absorbance at a wavelength (λ) of 486 nm (representing hydrolysis of the nitrocefin β-lactam ring) was monitored immediately using a BioTek Powerwave XS2 microplate reader. In similar fashion, using UV-transparent 96-well microtiter plates, hydrolysis of imipenem (100 μM) by KPC-2 was monitored at λ 300 nm, while cefotaxime (100 μM) hydrolysis by CTX-M-15 and SHV-5 was monitored at λ 300 nm. Assays were performed in duplicate, and the percentage inhibition relative to reaction mixtures containing no inhibitor were determined for each concentration of inhibitor.

OXA-48 = target: T1, OXA-48 (Klebsiella pneumoniae, UniProt Q6XEC0); assay: biochemical
T1 construct: made in house; host or cells: E. coli BL21(DE3), plasmid pET-OXA-48 (pET9a)

KPC-2 = KPC-2 (Klebsiella pneumoniae, UniProt Q9F663); assay: IC50 determination against purified β-lactamase; format: biochemical; design: made in house; host or cells: E. coli BL21(DE3), plasmid pET-KPC-2 (pET9a); details: substrate imipenem; mean from duplicate measurements
Protocol: as §1

OXA-1 = target: T2, OXA-1 (Escherichia coli, UniProt P13661); assay: IC50 determination against purified β-lactamase; format: biochemical; details: substrate nitrocefin; mean from duplicate measurements
T2 construct: made in house; host or cells: E. coli BL21(DE3), pET9a

[6] = system: K. pneumoniae ATCC BAA-1705 (KPC-2); assay: Broth microdilution MIC; format: cell-based; details: Klebsiella pneumoniae, ATCCBAA1705
[7] = system: E. cloacae ECL01 (TEM-72, ACT-1, P99AmpC); assay: Broth microdilution MIC; format: cell-based; details: Enterobacter cloacae
[8] = system: K. pneumoniae 752286 (OXA-48); assay: Broth microdilution MIC; format: cell-based; details: Klebsiella pneumoniae
E. coli ESBL4 (CTX-M-15) [9] = assay: Broth microdilution MIC; format: cell-based; details: Escherichia coli
E. coli ESBL4 (CTX-M-15) [10] = assay: 24-h time-kill assay; format: cell-based; details: Escherichia coli; lowest concentration with ≥3-log10 CFU/ml reduction at 24 h; read-out: MBC
Protocol: (§2) In vitro antibacterial time-kill assay. […] Time-kill assays were performed in 14 ml glass tubes or deep-well storage plates with a bacterial inoculum in CAMHB of 5 × 10^5 CFU/ml. The tubes/plates were incubated at 37°C with shaking at 200 rpm, and aliquots were drawn at six time points (0, 2, 4, 6, 8, and 24 h) to conduct 0.5 log10 dilutions in CAMHB in 96-well plates that were incubated overnight at 37°C and used to ascertain viable bacterial counts. The lowest quantifiable amount by this method is 2 log10 CFU/ml.

[11] = system: K. pneumoniae ATCC BAA-1705 (KPC-2); assay: 24-h time-kill assay; format: cell-based; details: Klebsiella pneumoniae, ATCCBAA1705; lowest concentration with ≥3-log10 CFU/ml reduction at 24 h; read-out: MBC
Protocol: as §2

[12] = system: E. cloacae ECL01 (TEM-72, ACT-1, P99AmpC); assay: 24-h time-kill assay; format: cell-based
Protocol: as §2

[13] = system: K. pneumoniae 752286 (OXA-48); assay: 24-h time-kill assay; format: cell-based; details: Klebsiella pneumoniae; lowest concentration with ≥3-log10 CFU/ml reduction at 24 h; read-out: MBC
Protocol: as §2

CMY-2 = target: T3, CMY-2 (Klebsiella pneumoniae, UniProt Q48434); assay: IC50 determination against purified β-lactamase; format: biochemical; details: substrate nitrocefin; mean from duplicate measurements; read-out: IC50
T3 construct: made in house; host or cells: E. coli BL21(DE3), pET9a

[14] = 25 isolates, BLI fixed at 4 μg/ml, AMC 2:1

CC1(C)S[C@@H]2[C@H](NC(=O)[C@H](N)c3ccc(O)cc3)C(=O)N2[C@H]1C(=O)O [AMX, amoxicillin]
MIC ([1]; read-out: Vector control MIC): 8 µg/mL (≈ 21.9 µM) | MIC50 [2, 14]: ≥ 256 µg/mL | MIC90 [2, 14]: ≥ 256 µg/mL | MIC range [2, 14]: ≥ 256 µg/mL | MIC ([2]; E. coli 664507 (OXA-48)): ≥ 256 µg/mL | MIC ([2]; E. coli 664516 (OXA-48)): ≥ 256 µg/mL | MIC ([2]; E. coli 664520 (OXA-48)): ≥ 256 µg/mL | MIC ([2]; E. coli 664522 (OXA-48)): ≥ 256 µg/mL | MIC ([2]; E. coli 664523 (OXA-48)): ≥ 256 µg/mL | MIC ([2]; E. coli 664524 (OXA-48)): ≥ 256 µg/mL | MIC ([2]; E. coli 664525 (OXA-48)): ≥ 256 µg/mL | MIC ([2]; E. coli 664526 (OXA-48)): ≥ 256 µg/mL | MIC ([2]; E. coli 664528 (OXA-48)): ≥ 256 µg/mL | MIC ([2]; E. coli 787112 (OXA-48)): ≥ 256 µg/mL | MIC ([2]; E. coli SI-422 (OXA-48)): ≥ 256 µg/mL | MIC ([2]; E. coli VER (OXA-48)): ≥ 256 µg/mL | MIC ([2]; K. pneumoniae 6299 (OXA-163)): ≥ 256 µg/mL | MIC ([2]; K. pneumoniae 515746 (OXA-48), first line): ≥ 256 µg/mL | MIC ([2]; K. pneumoniae 515746 (OXA-48), second line): ≥ 256 µg/mL | MIC ([2]; K. pneumoniae 664438 (OXA-48)): ≥ 256 µg/mL | MIC ([2]; K. pneumoniae 664439 (OXA-48)): ≥ 256 µg/mL | MIC ([2]; K. pneumoniae 664509 (OXA-48)): ≥ 256 µg/mL | MIC ([2]; K. pneumoniae 664518 (OXA-48)): ≥ 256 µg/mL | MIC ([2]; K. pneumoniae 722870 (OXA-48)): ≥ 256 µg/mL | MIC ([2]; K. pneumoniae BAH (OXA-204)): ≥ 256 µg/mL | MIC ([2]; K. pneumoniae DEL (OXA-232)): ≥ 256 µg/mL | MIC ([2]; K. pneumoniae DOV (OXA-48)): ≥ 256 µg/mL | MIC ([2]; K. pneumoniae KIRK (OXA-162)): ≥ 256 µg/mL | MIC ([2]; K. pneumoniae SI-C17 (OXA-48)): ≥ 256 µg/mL | MIC50 [3, 14]: ≥ 256 µg/mL | MIC90 [3, 14]: ≥ 256 µg/mL | MIC ([3]; C. freundii 134390 (AmpC, TEM-1)): ≥ 256 µg/mL | MIC ([3]; E. aerogenes 110099 (AmpC, SHV-12)): ≥ 256 µg/mL | MIC ([3]; E. aerogenes 111707 (AmpC, TEM-1)): ≥ 256 µg/mL | MIC ([3]; E. aerogenes 111902 (AmpC, TEM-1)): ≥ 256 µg/mL | MIC ([3]; E. coli 128 (AmpC, SHV-12, TEM-1, Toho-2)): 128 µg/mL (≈ 350 µM) | MIC ([3]; E. coli 3102 (AmpC, CTX-M-15, TEM-1)): 32 µg/mL (≈ 87.6 µM) | MIC ([3]; E. coli CH1 (AmpC, CTX-M-15, SHV-1, SHV-5, TEM-1)): ≥ 256 µg/mL | MIC ([3]; E. coli EC469 (AmpC, SHV-12, TEM-1)): 128 µg/mL (≈ 350 µM) | MIC ([3]; E. coli J53 (AmpC, SHV-5, TEM-1)): 128 µg/mL (≈ 350 µM) | MIC ([3]; E. coli SI-P026TC (CMY-2, TEM-1)): ≥ 256 µg/mL | MIC ([3]; E. coli SI-PO26 (AmpC, CMY-2, TEM-1)): ≥ 256 µg/mL | MIC ([3]; K. pneumoniae 129032 (MOX-2, SHV-12, TEM-1)): ≥ 256 µg/mL | MIC ([3]; K. pneumoniae 178279 (AmpC, SHV-12, TEM-1)): ≥ 256 µg/mL | MIC ([3]; K. pneumoniae 212027 (AmpC, FOX-5, TEM-1)): ≥ 256 µg/mL | MIC ([3]; K. pneumoniae 217917 (CMY-2, TEM-1)): ≥ 256 µg/mL | MIC ([3]; K. pneumoniae 301313 (AmpC, SHV-12, TEM-1)): ≥ 256 µg/mL | MIC ([3]; K. pneumoniae 398845 (CMY-2, SHV-12, TEM-1)): ≥ 256 µg/mL | MIC ([3]; K. pneumoniae SI-F100 (CMY-2, SHV-5, TEM-1)): ≥ 256 µg/mL | MIC ([3]; P. mirabilis SI-F014 (AmpC, TEM-72)): ≥ 256 µg/mL | MIC ([3]; S. marcescens 132253 (AmpC, CTX-M-3, OXA-1, SHV-12, TEM-1)): ≥ 256 µg/mL | MIC ([3]; S. marcescens 134434 (AmpC, SHV-12, TEM-1)): ≥ 256 µg/mL | MIC ([3]; S. marcescens 142397 (AmpC, SHV-7, TEM-1)): ≥ 256 µg/mL | MIC ([3]; S. marcescens 156212 (AmpC, SHV-12, TEM-1)): ≥ 256 µg/mL | MIC ([3]; S. marcescens 192478 (AmpC, SHV-12, TEM-1)): ≥ 256 µg/mL | MIC ([3]; S. marcescens 218068 (AmpC, SHV-7, TEM-1)): ≥ 256 µg/mL | MIC ([4]; E. cloacae 847429 (KPC)): ≥ 64 µg/mL | MIC ([4]; E. cloacae OIMGH49 (p99 AmpC, ACT-2, KPC-2, TEM-1)): ≥ 64 µg/mL | MIC ([4]; E. coli 786978 (KPC)): ≥ 64 µg/mL | MIC ([4]; K. pneumoniae 845661 (KPC)): ≥ 64 µg/mL | MIC ([4]; K. pneumoniae 845662 (KPC)): ≥ 64 µg/mL | MIC ([4]; K. pneumoniae 845665 (KPC)): ≥ 64 µg/mL | MIC ([4]; K. pneumoniae 845667 (KPC)): ≥ 64 µg/mL | MIC ([4]; K. pneumoniae 845670 (KPC)): ≥ 64 µg/mL | MIC ([4]; K. pneumoniae 845904 (KPC)): ≥ 64 µg/mL | MIC ([4]; K. pneumoniae 847204 (KPC)): ≥ 64 µg/mL | MIC ([4]; K. pneumoniae 847375 (KPC)): ≥ 64 µg/mL | MIC ([4]; K. pneumoniae 847387 (KPC)): ≥ 64 µg/mL

CO/N=C(\C(=O)N[C@@H]1C(=O)N2C(C(=O)O)=C(/C=C\c3scnc3C)CS[C@H]12)c1csc(N)n1 [Cefditoren, cefditoren]
MIC50 [5]: 0.5 µg/mL (≈ 0.987 µM) | MIC90 [5]: 2 µg/mL (≈ 3.95 µM)

C=CC1=C(C(=O)O)N2C(=O)[C@@H](NC(=O)/C(=N\OCC(=O)O)c3csc(N)n3)[C@H]2SC1 [Cefixime, cefixime]
MIC50 [5]: 0.5 µg/mL (≈ 1.1 µM) | MIC90 [5]: 2 µg/mL (≈ 4.41 µM)

O=C(O)[C@H]1/C(=C/CO)O[C@@H]2CC(=O)N21 [Clavulanic acid, clavulanic acid]
IC50 (CTX-M-15): 0.04 µM | IC50 (OXA-48): 14.3 µM | MIC ([1]; read-out: modal MIC): 32 µg/mL (≈ 161 µM) | IC50 (KPC-2): 1.8 µM | IC50 (OXA-1): 0.12 µM

C[C@H]1COc2c(N3CCN(C)CC3)c(F)cc3c(=O)c(C(=O)O)cn1c23 [Levofloxacin, levofloxacin]
MIC [6]: 64 µg/mL (≈ 177 µM) | MIC [7]: 0.12 µg/mL (≈ 0.332 µM) | MIC [8]: 32 µg/mL (≈ 88.6 µM) | MIC (E. coli ESBL4 (CTX-M-15) [9]): 32 µg/mL (≈ 88.6 µM) | MBC (E. coli ESBL4 (CTX-M-15) [10]): 32 µg/mL (≈ 88.6 µM) | MBC [11]: ≥ 64 µg/mL | MBC ([12]; Enterobacter cloacae, lowest concentration with ≥3-log10 CFU/ml reduction at 24 h, read-out: MBC): 0.12 µg/mL (≈ 0.332 µM) | outcome of 24-h time-kill assay ([12]; Fig. 3b): bactericidal activity | MBC [13]: > 32 µg/mL

C[C@]1(Cn2ccnn2)[C@H](C(=O)O)N2C(=O)C[C@H]2S1(=O)=O [Tazobactam, tazobactam]
IC50 (OXA-48): 3.5 µM | IC50 (CMY-2): 0.41 µM | IC50 (KPC-2): 1.7 µM
